Reference: DBAASP
Values after ≈ are worked out from the molar mass of the structure shown. Values belong to the compound of their own block, whether it stands above or below them.

How the values were obtained:
Test in all cases: ≥ marks a high value that may be exact or a test limit, other limits are often not marked, values filed in µg/mL are converted to µM
Vibrio vulnificus 204 = tested on: Vibrio vulnificus 204
[1] = tested on: Aeromonas hydrophila BCRC 13018
[2] = tested on: Streptococcus agalactiae BCRC 10787
Vibrio alginolyticus = tested on: Vibrio alginolyticus
[3] = tested on: Pseudomonas aeruginosa ATCC 19660
[4] = tested on: Streptococcus agalactiae 819
[5] = tested on: Enterococcus faecalis BCRC 10066
Listeria innocua = tested on: Listeria innocua
Pasteurella multocida = tested on: Pasteurella multocida
Streptococcus uberis = tested on: Streptococcus uberis
Bacillus cereus = tested on: Bacillus cereus
[6] = tested on: Staphylococcus epidermidis
Escherichia coli = tested on: Escherichia coli
Staphylococcus aureus = tested on: Staphylococcus aureus
Leuconostoc lactis = tested on: Leuconostoc lactis
Micrococcus luteus = tested on: Micrococcus luteus
Salmonella typhimurium = tested on: Salmonella typhimurium
Klebsiella pneumoniae = tested on: Klebsiella pneumoniae
Candida albicans = tested on: Candida albicans
Pseudomonas aeruginosa = tested on: Pseudomonas aeruginosa
Serratia marcescens = tested on: Serratia marcescens
Proteus mirabilis = tested on: Proteus mirabilis
Shigella dysenteriae = tested on: Shigella dysenteriae
Escherichia coli SBS 363 = tested on: Escherichia coli SBS 363
Fusarium oxysporum = tested on: Fusarium oxysporum
Staphylococcus capitis 1 = tested on: Staphylococcus capitis 1
Bacillus megaterium Bm11 = tested on: Bacillus megaterium Bm11
[7] = tested on: Candida albicans ATCC 10231
[8] = tested on: Yersinia pseudotuberculosis YPIII
[9] = tested on: Escherichia coli ATCC 25922
[10] = tested on: Staphylococcus aureus Cowan 1
[11] = tested on: Streptococcus mitis ATCC 903
[12] = tested on: Streptococcus sanguinis NY101
[13] = tested on: Streptococcus gordonii Challis DL1
Streptococcus mutans = tested on: Streptococcus mutans
[14] = tested on: Lacticaseibacillus casei ATCC 4646
[15] = tested on: Veillonella atypica PK1910
[16] = tested on: Pseudomonas aeruginosa PAK

MIC (Salmonella typhimurium): 11.1 µM (≈ 22.5 µg/mL)
MIC (Escherichia coli): 5 µM (≈ 10.1 µg/mL)
MIC (Klebsiella pneumoniae): 4.92 µM (≈ 9.99 µg/mL)
MIC (Candida albicans): 73.9 µM (≈ 150 µg/mL)
MIC (Staphylococcus aureus): 15 µM (≈ 30.4 µg/mL)
MIC (Pseudomonas aeruginosa): 49.2 µM (≈ 99.9 µg/mL)
MIC (Serratia marcescens): ≥ 98.5 µM
MIC (Proteus mirabilis): ≥ 98.5 µM
MIC (Shigella dysenteriae): 4.92 µM (≈ 9.99 µg/mL)
MIC (Micrococcus luteus): 1.23 µM (≈ 2.5 µg/mL)
Compound: CC(C)C[C@@H]1NC(=O)CNC(=O)[C@H](CO)NC(=O)[C@H](C(C)C)NC(=O)CNC(=O)[C@@H](NC(=O)[C@H](CC(C)C)NC(=O)[C@@H](NC(=O)[C@H](CCCCN)NC(=O)[C@H](CCCCN)NC(=O)CNC(=O)[C@@H](NC(=O)CNC(=O)[C@H](CC(C)C)NC(=O)[C@@H](NC(=O)[C@H](CCCCN)NC(=O)[C@H](CO)NC(=O)[C@H](CC(C)C)NC(=O)[C@H](CC(C)C)NC(=O)CN)C(C)C)C(C)C)C(C)C)CSSC[C@@H](C(=O)O)NC1=O [GLLSKVLGVGKKVLCGVSGLC]

MIC [11]: 26.8 µM (≈ 32 µg/mL)
MIC [12]: 13.4 µM (≈ 16 µg/mL)
MIC [13]: 26.8 µM (≈ 32 µg/mL)
MIC (Streptococcus mutans): 4.74 µM (≈ 5.65 µg/mL)
MIC [14]: 13.4 µM (≈ 16 µg/mL)
MIC [15]: ≥ 53.7 µM
Compound: NC(=O)[C@H](Cc1ccccc1)NC(=O)[C@H](Cc1c[nH]c2ccccc12)NC(=O)[C@H](Cc1c[nH]c2ccccc12)NC(=O)[C@H](Cc1c[nH]c2ccccc12)NC(=O)[C@H](CCCN=C(N)N)NC(=O)[C@H](CCCN=C(N)N)NC(=O)[C@@H](N)CCCN=C(N)N [RRRWWWF]

MIC [11]: ≥ 42.8 µM
MIC [12]: ≥ 42.8 µM
MIC [13]: 21.7 µM (≈ 32 µg/mL)
MIC (Streptococcus mutans): 16.3 µM (≈ 24 µg/mL)
MIC (Staphylococcus aureus): 42.3 µM (≈ 62.5 µg/mL)
MIC [14]: 21.7 µM (≈ 32 µg/mL)
MIC [15]: ≥ 43.3 µM
MIC [16]: ≥ 42.3 µM
Compound: CC[C@H](C)[C@H](N)C(=O)N[C@@H](CCCCN)C(=O)N[C@@H](CCC(N)=O)C(=O)N[C@@H](CC(C)C)C(=O)N[C@@H](CC(C)C)C(=O)N[C@@H](Cc1cnc[nH]1)C(=O)N[C@@H](Cc1ccccc1)C(=O)N[C@@H](Cc1ccccc1)C(=O)N[C@@H](CCC(N)=O)C(=O)N[C@@H](CCCN=C(N)N)C(=O)N[C@@H](Cc1ccccc1)C(N)=O [IKQLLHFFQRF]

MIC (Listeria innocua): ≥ 42.2 µM
MIC (Pasteurella multocida): ≥ 42.2 µM
MIC (Streptococcus uberis): ≥ 42.2 µM
MIC (Bacillus cereus): ≥ 42.2 µM
MIC [6]: ≥ 42.2 µM
MIC (Escherichia coli): 21.1 µM (≈ 50 µg/mL)
MIC (Staphylococcus aureus): > 42.2 µM
MIC (Leuconostoc lactis): ≥ 42.2 µM
MIC (Micrococcus luteus): 10.5 µM (≈ 25 µg/mL)
Compound: CC[C@H](C)[C@H](NC(=O)CNC(=O)[C@H](CCC(=O)O)NC(=O)[C@@H](NC(=O)[C@@H](NC(=O)CNC(=O)[C@H](CO)NC(=O)[C@H](C)NC(=O)[C@H](CC(C)C)NC(=O)[C@H](CC(=O)O)NC(=O)CNC(=O)[C@H](C)NC(=O)[C@H](C)NC(=O)[C@H](CCC(N)=O)NC(=O)[C@H](CCCCN)NC(=O)[C@@H](NC(=O)[C@H](CCCCN)NC(=O)[C@H](CCC(N)=O)NC(=O)[C@H](Cc1c[nH]c2ccccc12)NC(=O)[C@H](CC(C)C)NC(=O)CN)[C@@H](C)CC)[C@@H](C)CC)C(C)C)C(=O)N[C@@H](CCCCN)C(=O)N[C@@H](CO)C(N)=O [GLWQKIKQAAGDLASGIVEGIKS]

Continued, compound first:

Compound: CC[C@H](C)[C@H](NC(=O)[C@H](C)NC(=O)[C@H](CC(=O)O)NC(=O)[C@H](Cc1c[nH]c2ccccc12)NC(=O)[C@@H](NC(=O)[C@H](CS)NC(=O)[C@H](CCC(=O)O)NC(=O)CN)[C@@H](C)CC)C(=O)N[C@@H](Cc1ccccc1)C(=O)N[C@@H](Cc1cnc[nH]1)C(=O)NCC(=O)N[C@@H](C)C(=O)N[C@@H](CCCCN)C(=O)N[C@@H](Cc1cnc[nH]1)C(=O)N[C@@H](Cc1ccccc1)C(=O)N[C@@H](CC(C)C)C(=O)N[C@@H](Cc1cnc[nH]1)C(=O)N[C@@H](CCCN=C(N)N)C(=O)N[C@@H](CC(C)C)C(=O)N[C@H](C(=O)N[C@@H](CC(N)=O)C(=O)N1CCC[C@H]1C(N)=O)C(C)C [GECIWDAIFHGAKHFLHRLVNP]
MIC (Vibrio vulnificus 204): 7.62 µM (≈ 19.5 µg/mL)
MIC [1]: 7.62 µM (≈ 19.5 µg/mL)
MIC [2]: 7.62 µM (≈ 19.5 µg/mL)
MIC (Vibrio alginolyticus): 7.62 µM (≈ 19.5 µg/mL)
MIC [3]: 7.62 µM (≈ 19.5 µg/mL)
MIC [4]: 7.62 µM (≈ 19.5 µg/mL)
MIC [5]: 7.62 µM (≈ 19.5 µg/mL)

Compound: CC[C@H](C)[C@H](NC(=O)[C@@H](NC(=O)[C@H](C)NC(=O)[C@H](C)NC(=O)[C@@H](NC(=O)[C@H](CCCCN)NC(=O)[C@H](CCCCN)NC(=O)[C@@H](NC(=O)[C@@H](NC(=O)[C@H](CC(=O)O)NC(=O)[C@H](Cc1ccccc1)NC(=O)[C@H](CC(C)C)NC(=O)CN)C(C)C)[C@@H](C)CC)C(C)C)C(C)C)C(=O)NCC(=O)NCC(=O)N[C@@H](CC(C)C)C(N)=O [GLFDVIKKVAAVIGGL]
MIC (Listeria innocua): ≥ 62.5 µM
MIC (Pasteurella multocida): ≥ 62.5 µM
MIC (Streptococcus uberis): 15.6 µM (≈ 25 µg/mL)
MIC (Bacillus cereus): 31.3 µM (≈ 50 µg/mL)
MIC [6]: 15.6 µM (≈ 25 µg/mL)
MIC (Escherichia coli): > 62.5 µM
MIC (Staphylococcus aureus): 15.6 µM (≈ 25 µg/mL)
MIC (Leuconostoc lactis): 3.75 µM (≈ 6 µg/mL)
MIC (Micrococcus luteus): 7.5 µM (≈ 12 µg/mL)

Compound: CC[C@H](C)[C@H](NC(=O)[C@@H]1CCCN1C(=O)[C@H](CC(C)C)NC(=O)[C@H](Cc1ccc(O)cc1)NC(=O)[C@H](CCCCN)NC(=O)[C@H](CCCCN)NC(=O)[C@H](CC(C)C)NC(=O)[C@H](C)NC(=O)[C@H](CO)NC(=O)[C@H](CC(C)C)NC(=O)[C@H](Cc1ccccc1)NC(=O)CN)C(=O)N[C@H](C(=O)N[C@@H](CC(C)C)C(=O)N[C@@H](CCCCN)C(=O)N[C@@H](Cc1cnc[nH]1)C(=O)N[C@H](C(=O)O)C(C)C)C(C)C [GFLSALKKYLPIVLKHV]
MIC (Escherichia coli SBS 363): 3.12 µM (≈ 6.02 µg/mL)
MIC (Fusarium oxysporum): 0.78 µM (≈ 1.5 µg/mL)
MIC (Micrococcus luteus): 1.56 µM (≈ 3.01 µg/mL)

Compound: CC[C@H](C)[C@H](NC(=O)CNC(=O)[C@H](CO)NC(=O)[C@H](CC(C)C)NC(=O)[C@H](C)NC(=O)[C@H](CCCN=C(N)N)NC(=O)CNC(=O)[C@@H](NC(=O)[C@H](CC(C)C)NC(=O)[C@@H]1CCCN1C(=O)[C@H](CC(C)C)NC(=O)[C@@H](N)Cc1ccccc1)[C@@H](C)CC)C(=O)N[C@@H](CC(C)C)C(N)=O [FLPLIGRALSGIL]
MIC (Staphylococcus capitis 1): 20 µM (≈ 27.4 µg/mL)
MIC (Bacillus megaterium Bm11): 5 µM (≈ 6.84 µg/mL)
MIC [7]: 10 µM (≈ 13.7 µg/mL)
MIC [8]: ≥ 40 µM
MIC [9]: > 40 µM
MIC [10]: 20 µM (≈ 27.4 µg/mL)

Compound: CC[C@H](C)[C@H](NC(=O)CNC(=O)[C@H](CO)NC(=O)[C@H](CC(C)C)NC(=O)[C@@H](NC(=O)[C@H](CCCN=C(N)N)NC(=O)CNC(=O)[C@@H](NC(=O)[C@H](C)NC(=O)[C@@H]1CCCN1C(=O)[C@H](CC(C)C)NC(=O)[C@@H](N)Cc1ccccc1)[C@@H](C)CC)C(C)C)C(=O)N[C@@H](CC(C)C)C(N)=O [FLPAIGRVLSGIL]
MIC (Staphylococcus capitis 1): 20 µM (≈ 27.1 µg/mL)
MIC (Bacillus megaterium Bm11): 5 µM (≈ 6.77 µg/mL)
MIC [7]: 10 µM (≈ 13.5 µg/mL)
MIC [8]: ≥ 40 µM
MIC [9]: > 40 µM
MIC [10]: ≥ 40 µM
